Reference: the NIST ThermoML archive (doi:10.1021/je049738c)
Numbers after ± are expanded uncertainties.

Assays:
[1] = 298.15 K; 101.33 kPa; Liquid
[2] = molar heat capacity at constant pressure; details: 298.15 K; 101.33 kPa; Liquid; Flow calorimetry
[3] = xn = mol fraction of the nth substance listed; details: 298.15 K, 101.3 kPa, Liquid
[4] = heat capacity at constant pressure per volume; xn = mol fraction of the nth substance listed; details: 298.15 K, 101.3 kPa, Liquid, Flow calorimetry

CCC(O)CC [3-pentanol]
Details	mass density [kg/m3]	molar heat capacity at constant pressure [J/K/mol]
[1]	815.3 ± 0.68	–
[2]	–	254.6 ± 2.2

CCC(O)CC [3-pentanol] + O
Details	heat capacity, [4] [J/K/m3]	mass density, [3] [kg/m3]
x1 = 0.000803	4173700 ± 42000	996.49 ± 0.18
x1 = 0.001033	4175300 ± 42000	996.33 ± 0.18
x1 = 0.001252	4176900 ± 42000	996.18 ± 0.18
x1 = 0.001864	4181400 ± 42000	995.77 ± 0.18
x1 = 0.002399	4185100 ± 42000	995.4 ± 0.18
x1 = 0.003282	4191500 ± 42000	994.83 ± 0.18
x1 = 0.005357	4206400 ± 42000	993.51 ± 0.18
x1 = 0.005689	4209600 ± 42000	993.32 ± 0.18
x1 = 0.006773	4217300 ± 43000	992.61 ± 0.18

CCCCO [butan-1-ol]
Details	mass density [kg/m3]	molar heat capacity at constant pressure [J/K/mol]
[1]	805.62 ± 0.7	–
[2]	–	177.1 ± 2

CCCCO [butan-1-ol] + O
Details	heat capacity, [4] [J/K/m3]	mass density, [3] [kg/m3]
x1 = 0.001656	4176100 ± 42000	995.94 ± 0.18
x1 = 0.003814	4186600 ± 42000	994.54 ± 0.18
x1 = 0.005524	4195100 ± 42000	993.48 ± 0.18
x1 = 0.006663	4200400 ± 42000	992.78 ± 0.18
x1 = 0.009163	4213100 ± 43000	991.32 ± 0.19
x1 = 0.01415	4239900 ± 43000	988.57 ± 0.19
x1 = 0.01604	4251000 ± 43000	987.56 ± 0.19

CCC(C)O (centres undefined) [butan-2-ol]
Details	mass density [kg/m3]	molar heat capacity at constant pressure [J/K/mol]
[1]	802.07 ± 0.7	–
[2]	–	197.8 ± 1.8

CCC(C)O (centres undefined) [butan-2-ol] + O
Details	heat capacity, [4] [J/K/m3]	mass density, [3] [kg/m3]
x1 = 0.001648	4177000 ± 42000	995.99 ± 0.18
x1 = 0.00244	4181300 ± 42000	995.46 ± 0.18
x1 = 0.003665	4188100 ± 42000	994.69 ± 0.18
x1 = 0.006146	4201900 ± 42000	993.17 ± 0.18
x1 = 0.006234	4202800 ± 42000	993.15 ± 0.18
x1 = 0.008153	4213300 ± 43000	991.98 ± 0.18
x1 = 0.009049	4218100 ± 43000	991.43 ± 0.19
x1 = 0.01047	4226800 ± 43000	990.68 ± 0.19
x1 = 0.01411	4248500 ± 43000	988.8 ± 0.19
x1 = 0.01461	4251800 ± 43000	988.51 ± 0.19
x1 = 0.01766	4270000 ± 43000	987 ± 0.19

CCCCCO [pentan-1-ol]
Details	mass density [kg/m3]	molar heat capacity at constant pressure [J/K/mol]
[1]	810.68 ± 1	–
[2]	–	208.8 ± 2.4

CCCCCO [pentan-1-ol] + O
Details	heat capacity, [4] [J/K/m3]	mass density, [3] [kg/m3]
x1 = 0.001069	4174500 ± 42000	996.21 ± 0.18
x1 = 0.001645	4177900 ± 42000	995.78 ± 0.18
x1 = 0.001775	4178800 ± 42000	995.68 ± 0.18
x1 = 0.001916	4179400 ± 42000	995.57 ± 0.18
x1 = 0.002185	4181300 ± 42000	995.37 ± 0.18
x1 = 0.002474	4182900 ± 42000	995.16 ± 0.18
x1 = 0.002743	4184600 ± 42000	994.96 ± 0.18
x1 = 0.003049	4186100 ± 42000	994.73 ± 0.18
x1 = 0.003529	4189200 ± 42000	994.4 ± 0.18

CCCC(C)O (centres undefined) [pentan-2-ol]
Details	mass density [kg/m3]	molar heat capacity at constant pressure [J/K/mol]
[1]	804.55 ± 0.99	–
[2]	–	235.3 ± 2.6

CCCC(C)O (centres undefined) [pentan-2-ol] + O
Details	heat capacity, [4] [J/K/m3]	mass density, [3] [kg/m3]
x1 = 0.001235	4176700 ± 42000	996.1 ± 0.18
x1 = 0.001831	4180800 ± 42000	995.66 ± 0.18
x1 = 0.002163	4182900 ± 42000	995.4 ± 0.18
x1 = 0.002785	4187300 ± 42000	994.95 ± 0.18
x1 = 0.003519	4192400 ± 42000	994.4 ± 0.18
x1 = 0.004937	4202200 ± 42000	993.42 ± 0.18
x1 = 0.0059	4209100 ± 42000	992.73 ± 0.18
x1 = 0.00695	4217100 ± 43000	992.05 ± 0.18

CCCO [propan-1-ol]
Details	mass density [kg/m3]	molar heat capacity at constant pressure [J/K/mol]
[1]	799.52 ± 0.7	–
[2]	–	144.3 ± 1.6

CCCO [propan-1-ol] + O
Details	heat capacity, [4] [J/K/m3]	mass density, [3] [kg/m3]
x1 = 0.000792	4170900 ± 42000	996.59 ± 0.18
x1 = 0.002096	4175200 ± 42000	995.84 ± 0.18
x1 = 0.002978	4178200 ± 42000	995.36 ± 0.18
x1 = 0.006166	4189500 ± 42000	993.64 ± 0.18
x1 = 0.008272	4197000 ± 42000	992.56 ± 0.18
x1 = 0.01185	4209800 ± 42000	990.81 ± 0.19
x1 = 0.01732	4230600 ± 43000	988.27 ± 0.19
x1 = 0.02089	4243100 ± 43000	986.68 ± 0.2

CC(C)O [propan-2-ol]
Details	mass density [kg/m3]	molar heat capacity at constant pressure [J/K/mol]
[1]	780.72 ± 0.73	–
[2]	–	155.2 ± 1.8

CC(C)O [propan-2-ol] + O
Details	heat capacity, [4] [J/K/m3]	mass density, [3] [kg/m3]
x1 = 0.001072	4172300 ± 42000	996.38 ± 0.18
x1 = 0.001923	4175600 ± 42000	995.85 ± 0.18
x1 = 0.003078	4179900 ± 42000	995.16 ± 0.18
x1 = 0.00413	4183900 ± 42000	994.53 ± 0.18
x1 = 0.005976	4191200 ± 42000	993.44 ± 0.18
x1 = 0.009312	4204200 ± 42000	991.51 ± 0.19
x1 = 0.01437	4225200 ± 43000	988.91 ± 0.19
x1 = 0.01665	4234700 ± 43000	987.73 ± 0.19
